Results: PMC12567096, “An Efficacy- and In Vivo Exposure-Oriented Integrated Study to Investigate the Effective Components of Qishen Granule” (Pharmaceuticals, 2025)

What was measured:
[1] = Concentrations of 24 analytes in QSG treated plasma (Table S5); conditions: for Concentration: QSG treated plasma, n = 5
[2] = Pharmacokinetic study in rats after oral administration of QSG; conditions: for AUCi: exposure (AUC0→∞) of the component in rats after oral QSG, as used for ECI; for Oral relative bioavailability: exposure level (AUC0→∞) compared with the dosage of each compound in QSG; for Absorption efficiency / bioavailability (in words): from Table S12, rats
H9c2 cells = test: Cytotoxicity on H9c2 cells (CCK-8); format: cell-based, rat
Method: (§1) Rat myocardial H9c2 cells (purchased from China Infrastructure of Cell Line Resources, Institute of Basic Medical Sciences, Chinese Academy of Medical Sciences) were cultured in DMEM supplemented with 10% fetal bovine serum (FBS), Penicillin (100 U/mL), and Streptomycin (100 μg/mL) at 37 °C under a humidified atmosphere of 5% CO2 and 95% air. For OGD/R treatment, H9c2 cells were cultured in glucose-free DMEM under hypoxic conditions (95%N2 + 5%CO2) for 4 h at 37 °C followed by complete medium under normal conditions with air (95%) and CO2 (5%) for 2 h. A control group was maintained under normal culture conditions (with glucose-containing DMEM and 5% CO2) without undergoing OGD/R treatment. CCK8 was used to assess cell viability. After treatment, H9c2 cells were seeded in 96-well plates, with each well supplemented with 10 μL of CCK-8 solution and then incubated for 1 h. Finally, the absorbance at 450 nm was detected by a microplate reader (Model […] 200 PRO, TECAN, Grodig, Austria).
When evaluating the cytotoxicities of the absorbed compounds, the H9c2 cells were seeded in 96-well plates at a density of 1 × 10^4 cells/well; when cells reached 80% confluence, […] Afterward, the protective effects were verified by assessing the cell viability when treating with different concentrations (1, 10, 25, 50, and 100 μM) of the analytes prior to OGD/R treatment.

OGD/R-induced H9c2 cells = test: Protective effect on OGD/R-induced H9c2 cells (CCK-8 cell viability); format: cell-based, rat; conditions: for H9c2 cell survival after OGD/R (in words): 1, 10, 25, 50 and 100 μM prior to OGD/R, vs model group; for EC50: protective effect against OGD/R injury, H9c2 cell viability
Method: as §1
When evaluating the cytotoxicities of the absorbed compounds, the H9c2 cells were seeded in 96-well plates at a density of 1 × 10^4 cells/well; when cells reached 80% confluence, they were treated with 25 and 50 μM of the 24 analytes to screen the non-toxic concentration ranges. Afterward, the protective effects were verified by assessing the cell viability when treating with different concentrations (1, 10, 25, 50, and 100 μM) of the analytes prior to OGD/R treatment.

[3] = rat plasma, single oral 7 g/kg QSG, n = 6
[4] = Sprague Dawley, rat, plasma, oral, 7 g/kg
[5] = Sprague Dawley, rat, plasma, po, 7 g/kg

Q: What does the source list for `CC(C)(O)[C@@H]1CC[C@](C)([C@H]2[C@@H](O)C[C@@]3(C)[C@@H]4C[C@H](O[C@@H]5O[C@H](CO)[C@@H](O)[C@H](O)[C@H]5O)[C@H]5C(C)(C)[C@@H](O[C@@H]6OC[C@@H](O)[C@H](O)[C@H]6O)CC[C@@]56C[C@@]46CC[C@]23C)O1` [Astragaloside IV]?
A: Concentration ([1]; 0.17 h): 7.10 ± 5.941 ng/mL; Concentration ([1]; 0.5 h): 8.655 ± 2.757 ng/mL; Concentration ([1]; 1 h): 3.017 ± 3.507 ng/mL; Concentration ([1]; 2 h): 3.783 ± 2.015 ng/mL; Concentration ([1]; 4 h): 0.710 ± 1.991 ng/mL; Concentration ([1]; 8 h): 1.337 ± 1.728 ng/mL; Concentration ([1]; 12 h): 2.200 ± 2.015 ng/mL; AUC0→∞ ([2]; Table S12, rats, oral QSG): 144.9 ng·h/mL; AUCi [2]: 144.9; Oral relative bioavailability [2]: 0.107%; Absorption efficiency / bioavailability (in words) ([2]; oral QSG): relatively higher absorption efficiency; AUC0→t [2, 3]: 55.94 ± 26.16 ng·h/mL; AUC0→∞ [2, 3]: 144.9 ± 101.2 ng·h/mL; Cmax [2, 3]: 12.06 ± 2.010 ng/mL; MRT [2, 3]: 6.104 ± 3.716 h; T1/2 [2, 3]: 14.87 ± 9.060 h; Tmax [2, 3]: 0.250 ± 0.0920 h; Shape of the plasma concentration–time curve (in words) ([2]; rats, oral QSG): Double peaks; Inhibition rate (H9c2 cells; 25 μM, H9c2 cells, n=3): -6.7 ± 7.1%; Inhibition rate (H9c2 cells; 50 μM, H9c2 cells, n=3): 7.0 ± 2.1%; Inhibition rate (H9c2 cells; 100 μM, H9c2 cells, n=3): 15.0 ± 2.3%; H9c2 cell survival after OGD/R (in words) (OGD/R-induced H9c2 cells): significantly improve H9c2 cell survival rates; Protective effects on OGD/R-induced H9c2 cells (in words) (OGD/R-induced H9c2 cells; at 50 and 100 μM): significant protective effects

Q: For `O=C(/C=C/c1ccc(O)c(O)c1)O[C@@H]1C[C@](O)(C(=O)O)C[C@@H](O)[C@H]1O` [Chlorogenic acid], which concentration at 0.08 h [1, 4] is on record?
A: The concentration at 0.08 h was 66.2 ± 20.1 ng/mL.

Q: And the concentration at 0.17 h [1, 4]?
A: The concentration at 0.17 h was 99.06 ± 0.162 ng/mL.

Q: What about the concentration at 0.5 h [1, 4] of the same compound?
A: Its concentration at 0.5 h is 395 ± 7.1 ng/mL.

Q: What about the concentration at 1 h [1, 4] of the same compound?
A: The concentration at 1 h was 170 ± 35.7 ng/mL.

Q: What about the concentration at 2 h [1, 4] of the same compound?
A: The concentration at 2 h was 77.2 ± 7.26 ng/mL.

Q: And the concentration at 4 h [1, 4]?
A: The concentration at 4 h was 68.1 ± 21 ng/mL.

Q: What about the concentration at 8 h [1, 4] of the same compound?
A: The concentration at 8 h was 51.4 ± 5.49 ng/mL.

Q: What about the concentration at 12 h [1, 4] of the same compound?
A: Its concentration at 12 h is 39.1 ± 14.9 ng/mL.

Q: What about the AUC [2, 5] of the same compound?
A: Its AUC is 1420 ng·h/mL.

Q: What about the MRT [2, 5] of the same compound?
A: The MRT was 7.18 ± 0.978 h.

Q: What about the Tmax [2, 5] of the same compound?
A: Its Tmax is 0.563 ± 0.125 h.

Q: And the half-life [2, 5]?
A: Its half-life is 9.22 ± 3.27 h.

Q: What about the AUC(0-inf) ([2]; Sprague Dawley, rat, plasma, po, 7 g/kg, AUC0→∞, rat plasma, single oral 7 g/kg QSG, n = 6) of the same compound?
A: The AUC(0-inf) was 1420 ± 243 ng·h/mL.

Q: What about the AUC0→t [2, 3] of the same compound?
A: The AUC0→t was 1278 ± 171.4 ng·h/mL.

Q: What about the Cmax [2, 3] of the same compound?
A: The Cmax was 394.1 ± 6.271 ng/mL.

Q: What about the inhibition at 25 µM (H9c2 cells; Rattus norvegicus, 25 μM, H9c2 cells, n=3, read-out: Inhibition rate) of the same compound?
A: Its inhibition at 25 µM is -1.6 ± 4.9%.

Q: And the inhibition at 50 µM (H9c2 cells; Rattus norvegicus, 50 μM, H9c2 cells, n=3, read-out: Inhibition rate)?
A: The inhibition at 50 µM was 12 ± 1.7%.

Q: And the inhibition at 100 µM (H9c2 cells; Rattus norvegicus, 100 μM, H9c2 cells, n=3, read-out: Inhibition rate)?
A: Its inhibition at 100 µM is 15 ± 4.1%.

Q: And the “H9c2 cell survival after OGD/R (in words)” value (OGD/R-induced H9c2 cells)?
A: Its value is “significantly improve H9c2 cell survival rates”.

Q: And the EC50 (OGD/R-induced H9c2 cells; Rattus norvegicus)?
A: Its EC50 is 8.6 µM.

Q: For `O=C(/C=C/c1ccc(O)c(O)c1)O[C@H]1[C@H](O)C[C@](O)(C(=O)O)C[C@H]1O` [Cryptochlorogenic acid], which Concentration ([1]; 0.08 h) is on record?
A: The Concentration was 17.855 ± 11.504 ng/mL.

Q: And the Concentration ([1]; 0.17 h)?
A: The Concentration was 95.627 ± 23.461 ng/mL.

Q: What about the Concentration ([1]; 0.5 h) of the same compound?
A: Its Concentration is 135.955 ± 20.918 ng/mL.

Q: What about the Concentration ([1]; 1 h) of the same compound?
A: The Concentration was 54.572 ± 22.599 ng/mL.

Q: And the Concentration ([1]; 2 h)?
A: Its Concentration is 29.505 ± 18.460 ng/mL.

Q: What about the Concentration ([1]; 4 h) of the same compound?
A: The Concentration was 18.424 ± 6.281 ng/mL.

Q: What about the Concentration ([1]; 8 h) of the same compound?
A: The Concentration was 21.857 ± 6.099 ng/mL.

Q: What about the Concentration ([1]; 12 h) of the same compound?
A: The Concentration was 12.189 ± 3.932 ng/mL.

Q: What about the “AUC0→∞” value ([2]; Table S12, rats, oral QSG) of the same compound?
A: The value was 576.2 ng·h/mL.

Q: And the AUCi [2]?
A: Its AUCi is 576.2.

Q: What about the Oral relative bioavailability [2] of the same compound?
A: Its Oral relative bioavailability is 0.026%.

Q: What about the “Absorption efficiency / bioavailability (in words)” value ([2]; oral QSG) of the same compound?
A: Its value is “relatively higher absorption rates”.

Q: And the AUC0→t [2, 3]?
A: The AUC0→t was 532.2 ± 41.45 ng·h/mL.

Q: And the “AUC0→∞” value [2, 3]?
A: Its value is 576.2 ± 58.15 ng·h/mL.

Q: And the Cmax [2, 3]?
A: Its Cmax is 184.1 ± 57.43 ng/mL.

Q: What about the MRT [2, 3] of the same compound?
A: The MRT was 8.933 ± 0.5290 h.

Q: And the T1/2 [2, 3]?
A: Its T1/2 is 10.84 ± 2.625 h.

Q: And the Tmax [2, 3]?
A: Its Tmax is 0.364 ± 0.076 h.

Q: And the Inhibition rate (H9c2 cells; 25 μM, H9c2 cells, n=3)?
A: Its Inhibition rate is -16.2 ± 4.2%.

Q: What about the Inhibition rate (H9c2 cells; 50 μM, H9c2 cells, n=3) of the same compound?
A: The Inhibition rate was -3.4 ± 0.2%.

Q: What about the Inhibition rate (H9c2 cells; 100 μM, H9c2 cells, n=3) of the same compound?
A: Its Inhibition rate is 5.2 ± 0.4%.

Q: And the “Effect on H9c2 cell viability / cytotoxicity (in words)” value (H9c2 cells; CCK-8, compared to the control group)?
A: Its value is “significantly enhanced cell viabilities”.

Q: What about the “H9c2 cell survival after OGD/R (in words)” value (OGD/R-induced H9c2 cells) of the same compound?
A: The value was “significantly improve H9c2 cell survival rates”.

Q: And the EC50 (OGD/R-induced H9c2 cells)?
A: Its EC50 is 1.13 µM.
